Measured values as given in PMC4372254, “Unlocking the Diversity of Alkaloids in Catharanthus roseus: Nuclear Localization Suggests Metabolic Channeling in Secondary Metabolism” (Chemistry & Biology, 2015).

How the values were obtained:
[1] = molecular target: T1, THAS (tetrahydroalstonine synthase) (Catharanthus roseus, UniProt A0A0F6SD02); experiment: isothermal titration calorimetry; format: binding
T1 construct: His-tagged, vector pOPINF, expressed in E. coli Rosetta 2 pLysS, HisTrap purified
T1 sequence (A0A0F6SD02 1-356): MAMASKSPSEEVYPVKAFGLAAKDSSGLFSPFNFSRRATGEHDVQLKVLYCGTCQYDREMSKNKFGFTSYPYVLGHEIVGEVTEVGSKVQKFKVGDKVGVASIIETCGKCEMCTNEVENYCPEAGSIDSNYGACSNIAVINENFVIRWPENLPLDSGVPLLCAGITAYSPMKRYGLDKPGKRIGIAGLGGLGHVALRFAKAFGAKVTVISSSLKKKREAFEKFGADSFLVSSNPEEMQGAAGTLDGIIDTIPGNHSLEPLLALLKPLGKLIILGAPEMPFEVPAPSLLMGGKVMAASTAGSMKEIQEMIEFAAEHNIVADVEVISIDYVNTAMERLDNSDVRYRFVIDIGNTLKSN

[2] = molecular target: T2, SGD (strictosidine glucosidase) (Catharanthus roseus, UniProt Q9M7N7); experiment: in situ deglycosylation, […] min incubation; format: biochemical; conditions: strictosidine aglycone formed
T2 construct: recombinant, purified as THAS, expression system of Yerkes et al. 2008

Kd [1] [nM] | Structure (SMILES) | in situ deglycosylation, 10 min incubation [2]
1500 ± 100 | NC(=O)C1=CN([C@@H]2O[C@H](COP(=O)(O)OP(=O)(O)OC[C@H]3O[C@@H](n4cnc5c(N)ncnc54)[C@H](OP(=O)(O)O)[C@@H]3O)[C@@H](O)[C@H]2O)C=CC1 [NADPH] | 
 | C=C[C@H]1[C@H](O[C@@H]2O[C@H](CO)[C@@H](O)[C@H](O)[C@H]2O)OC=C(C(=O)OC)[C@H]1C[C@@H]1NCCc2c1[nH]c1ccccc21 [strictosidine] | strictosidine was completely converted to the aglycone
